The record followed here is ChEMBL document CHEMBL1641363, “Fragment-based discovery of 6-substituted isoquinolin-1-amine based ROCK-I inhibitors” (Bioorg Med Chem Lett, 2011).

Series [1] in a line: Half life in rat liver microsome. Format: ADME. To be noted: liver microsomes. A general note: Microsomes from liver hold many membrane-bound enzymes, among them those of drug oxidation.
A short description of series [2]: Permeability from basolateral to apical side of human Caco2 cells. The class given is ADME, cell-based. To be noted: Caco-2, read-out: permeability.
Series [3] in a line: Half life in C57 mouse. To be noted: in vivo. The class given is ADME, organism-based.
The target of series [4] is Serine/threonine-protein kinase SIK2 (Homo sapiens) (UniProt Q9H0K1). To be noted: 10 uM.
Description: Inhibition of SNFILK2 at 10 uM
Series [5] concerns the target Serine/threonine-protein kinase PLK3 (Homo sapiens) (UniProt Q9H4B4). Conditions: 10 uM.
Description: Inhibition of PLK3 at 10 uM
Series [6] is described as follows: Volume of distribution at steady state in C57 mouse. Conditions: in vivo, read-out: Vdss. Format: ADME, organism-based.
The target in series [7] is Proto-oncogene tyrosine-protein kinase receptor Ret (Homo sapiens) (UniProt P07949). Conditions: 10 uM.
Sequence of Proto-oncogene tyrosine-protein kinase receptor Ret (Homo sapiens) (P07949 whole entry): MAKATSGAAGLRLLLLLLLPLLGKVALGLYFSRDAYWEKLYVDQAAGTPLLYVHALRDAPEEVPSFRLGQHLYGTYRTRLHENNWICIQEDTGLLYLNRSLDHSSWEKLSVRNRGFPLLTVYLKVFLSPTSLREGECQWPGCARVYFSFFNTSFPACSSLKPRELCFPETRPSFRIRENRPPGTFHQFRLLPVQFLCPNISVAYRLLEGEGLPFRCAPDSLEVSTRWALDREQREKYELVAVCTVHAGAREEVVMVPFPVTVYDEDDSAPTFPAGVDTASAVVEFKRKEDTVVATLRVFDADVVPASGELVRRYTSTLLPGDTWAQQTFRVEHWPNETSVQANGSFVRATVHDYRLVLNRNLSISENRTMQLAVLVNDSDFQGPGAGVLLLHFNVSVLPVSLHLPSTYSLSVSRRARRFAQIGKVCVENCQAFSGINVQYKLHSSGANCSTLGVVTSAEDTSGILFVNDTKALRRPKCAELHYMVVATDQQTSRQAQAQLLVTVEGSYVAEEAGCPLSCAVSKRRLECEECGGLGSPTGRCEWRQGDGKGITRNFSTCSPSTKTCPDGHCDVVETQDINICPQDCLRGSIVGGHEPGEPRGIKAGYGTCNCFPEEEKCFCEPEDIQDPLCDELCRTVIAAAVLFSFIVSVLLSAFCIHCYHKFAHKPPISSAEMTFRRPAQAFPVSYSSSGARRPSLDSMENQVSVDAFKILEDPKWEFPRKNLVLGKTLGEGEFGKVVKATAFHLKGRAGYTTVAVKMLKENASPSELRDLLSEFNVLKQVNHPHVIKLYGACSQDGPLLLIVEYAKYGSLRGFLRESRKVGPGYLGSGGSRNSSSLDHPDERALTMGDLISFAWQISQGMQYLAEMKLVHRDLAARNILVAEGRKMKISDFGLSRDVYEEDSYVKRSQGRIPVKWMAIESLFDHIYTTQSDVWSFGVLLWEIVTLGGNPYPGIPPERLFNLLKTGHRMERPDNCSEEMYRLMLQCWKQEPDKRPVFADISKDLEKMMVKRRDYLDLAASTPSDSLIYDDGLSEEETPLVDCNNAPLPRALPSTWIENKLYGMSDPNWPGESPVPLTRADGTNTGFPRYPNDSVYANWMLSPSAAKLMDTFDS
Description: Inhibition of RET at 10 uM
The target in series [8] is T1, Ephrin type-A receptor 8 (Homo sapiens) (UniProt P29322).
T1 sequence (whole entry): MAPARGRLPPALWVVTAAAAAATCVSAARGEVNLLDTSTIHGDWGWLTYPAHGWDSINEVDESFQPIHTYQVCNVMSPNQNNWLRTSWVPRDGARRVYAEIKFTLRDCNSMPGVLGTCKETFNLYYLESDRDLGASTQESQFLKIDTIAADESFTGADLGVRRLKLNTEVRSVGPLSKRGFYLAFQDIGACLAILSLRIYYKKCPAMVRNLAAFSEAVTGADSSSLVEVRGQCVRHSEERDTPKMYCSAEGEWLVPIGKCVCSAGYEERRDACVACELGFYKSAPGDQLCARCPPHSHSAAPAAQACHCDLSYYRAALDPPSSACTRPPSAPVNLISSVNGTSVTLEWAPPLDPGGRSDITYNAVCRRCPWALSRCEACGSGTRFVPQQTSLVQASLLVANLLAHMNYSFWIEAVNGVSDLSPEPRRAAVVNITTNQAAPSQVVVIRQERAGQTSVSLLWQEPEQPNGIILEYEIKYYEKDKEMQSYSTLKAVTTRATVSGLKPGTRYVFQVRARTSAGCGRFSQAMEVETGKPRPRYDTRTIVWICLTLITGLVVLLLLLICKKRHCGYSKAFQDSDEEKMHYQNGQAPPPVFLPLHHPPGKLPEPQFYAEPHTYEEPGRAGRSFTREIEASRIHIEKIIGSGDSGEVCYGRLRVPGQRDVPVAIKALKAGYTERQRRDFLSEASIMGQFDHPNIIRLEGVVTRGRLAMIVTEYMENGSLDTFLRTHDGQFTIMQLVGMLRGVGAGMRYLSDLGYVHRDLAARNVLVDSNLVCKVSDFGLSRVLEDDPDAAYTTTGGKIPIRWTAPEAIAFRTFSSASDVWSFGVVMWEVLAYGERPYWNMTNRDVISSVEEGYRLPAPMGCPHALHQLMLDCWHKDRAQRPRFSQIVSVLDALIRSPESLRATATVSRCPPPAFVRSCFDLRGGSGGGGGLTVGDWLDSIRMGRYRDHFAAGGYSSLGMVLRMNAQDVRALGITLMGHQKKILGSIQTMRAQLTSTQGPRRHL
To be noted: 10 uM.
Description: Inhibition of EPHA8 at 10 uM

The nature of series [9]: Half life in rat hepatocyte. The class given is ADME, cell-based, Liver. To be noted: hepatocytes.
Series [10] addresses Platelet-derived growth factor receptor alpha (Homo sapiens) (UniProt P16234). Conditions: 10 uM.
Description: Inhibition of PDGFRA at 10 uM
In series [11] the target is Rho-associated protein kinase 2 (Homo sapiens, UniProt O75116). Conditions: 10 uM.
Description: Inhibition of ROCK2 at 10 uM
Series [12] has as its target Tyrosine-protein kinase Fes/Fps (Homo sapiens) (UniProt P07332). To be noted: 10 uM.
Description: Inhibition of FES at 10 uM
The nature of series [13]: Plasma clearance in C57 mouse. The class given is ADME, organism-based.
The target of series [14] is T2, Tyrosine-protein kinase receptor TYRO3 (Homo sapiens) (UniProt Q06418).
T2 sequence (whole entry): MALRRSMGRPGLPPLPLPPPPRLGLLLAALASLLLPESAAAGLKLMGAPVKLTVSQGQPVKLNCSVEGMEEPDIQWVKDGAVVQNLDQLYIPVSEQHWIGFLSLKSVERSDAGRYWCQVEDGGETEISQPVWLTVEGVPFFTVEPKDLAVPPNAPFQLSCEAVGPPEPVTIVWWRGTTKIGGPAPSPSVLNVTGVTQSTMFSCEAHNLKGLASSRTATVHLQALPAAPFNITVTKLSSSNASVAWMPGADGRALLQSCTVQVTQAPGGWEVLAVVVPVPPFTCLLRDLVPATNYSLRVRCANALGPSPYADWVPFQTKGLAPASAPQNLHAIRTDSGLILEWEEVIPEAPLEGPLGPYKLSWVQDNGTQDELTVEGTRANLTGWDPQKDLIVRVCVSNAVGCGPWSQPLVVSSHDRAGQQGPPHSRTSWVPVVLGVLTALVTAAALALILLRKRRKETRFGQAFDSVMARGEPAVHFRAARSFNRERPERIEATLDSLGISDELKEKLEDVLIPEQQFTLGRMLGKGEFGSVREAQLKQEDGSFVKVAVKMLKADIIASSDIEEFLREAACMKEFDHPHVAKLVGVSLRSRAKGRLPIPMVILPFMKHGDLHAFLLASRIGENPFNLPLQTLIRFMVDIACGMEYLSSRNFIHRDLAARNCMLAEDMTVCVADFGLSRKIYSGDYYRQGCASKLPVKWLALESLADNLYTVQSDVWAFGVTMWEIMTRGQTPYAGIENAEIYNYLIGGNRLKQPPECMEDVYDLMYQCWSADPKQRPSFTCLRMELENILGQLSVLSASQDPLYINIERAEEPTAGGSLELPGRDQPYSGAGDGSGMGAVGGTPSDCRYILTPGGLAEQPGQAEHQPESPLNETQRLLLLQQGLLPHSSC
To be noted: 10 uM.
Description: Inhibition of RSE at 10 uM

Series [15] has as its target Rho-associated protein kinase 1 (Homo sapiens, UniProt Q13464). Conditions: 10 uM.
Description: Inhibition of ROCK1 at 10 uM
The nature of series [16]: Oral bioavailability in C57 mouse. Format: ADME, organism-based. Conditions: in vivo.
The target of series [17] is Angiopoietin-1 receptor (Homo sapiens) (UniProt Q02763). To be noted: 10 uM.
Sequence of Angiopoietin-1 receptor (Homo sapiens) (Q02763 whole entry): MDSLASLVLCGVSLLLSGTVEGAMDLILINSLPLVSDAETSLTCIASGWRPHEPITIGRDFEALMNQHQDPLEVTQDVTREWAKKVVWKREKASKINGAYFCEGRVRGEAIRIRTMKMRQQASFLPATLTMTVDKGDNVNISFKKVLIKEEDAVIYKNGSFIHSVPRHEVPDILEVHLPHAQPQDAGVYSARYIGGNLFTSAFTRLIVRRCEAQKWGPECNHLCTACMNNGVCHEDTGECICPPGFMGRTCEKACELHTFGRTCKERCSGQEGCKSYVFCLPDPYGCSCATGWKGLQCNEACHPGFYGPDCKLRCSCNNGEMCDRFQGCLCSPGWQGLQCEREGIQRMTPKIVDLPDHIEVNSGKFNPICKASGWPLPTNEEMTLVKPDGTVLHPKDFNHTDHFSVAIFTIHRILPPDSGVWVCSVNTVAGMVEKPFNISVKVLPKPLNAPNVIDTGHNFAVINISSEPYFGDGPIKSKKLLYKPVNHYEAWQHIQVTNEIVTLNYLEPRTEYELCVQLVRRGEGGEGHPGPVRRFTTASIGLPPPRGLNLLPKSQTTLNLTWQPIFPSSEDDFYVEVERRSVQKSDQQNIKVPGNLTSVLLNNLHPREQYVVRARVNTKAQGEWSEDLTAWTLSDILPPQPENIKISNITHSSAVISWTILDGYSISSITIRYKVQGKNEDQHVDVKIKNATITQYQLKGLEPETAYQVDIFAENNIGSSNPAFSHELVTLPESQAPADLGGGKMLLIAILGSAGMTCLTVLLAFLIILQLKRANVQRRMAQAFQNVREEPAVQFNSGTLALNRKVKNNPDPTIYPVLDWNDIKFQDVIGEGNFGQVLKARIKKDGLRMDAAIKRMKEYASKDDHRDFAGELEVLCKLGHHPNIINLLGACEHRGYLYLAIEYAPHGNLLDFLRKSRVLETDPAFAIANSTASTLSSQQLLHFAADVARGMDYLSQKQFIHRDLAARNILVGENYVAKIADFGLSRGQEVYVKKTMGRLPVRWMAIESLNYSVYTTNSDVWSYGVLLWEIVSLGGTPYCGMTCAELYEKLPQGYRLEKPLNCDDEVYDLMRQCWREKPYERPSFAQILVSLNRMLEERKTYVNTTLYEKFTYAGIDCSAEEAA
Description: Inhibition of Tie2 at 10 uM
A short description of series [18]: Half life in mouse liver microsome. Conditions: liver microsomes. The class given is ADME.
Series [19] addresses Mitogen-activated protein kinase kinase kinase kinase 4 (Homo sapiens) (UniProt O95819). To be noted: 10 uM.
Description: Inhibition of HGK at 10 uM

In general, half-life refers to the time needed for the level to fall by half in the phase considered. As usually defined, the inhibition is the share of the control response that was lost under treatment. Read a high inhibition as a response far below the control. By clearance is commonly meant the rate of elimination divided by the concentration. Read a high clearance as a high capacity for elimination. Broadly, the bioavailability is the share of a dose that reaches the circulation, judged against a reference dose that is usually intravenous.

Sequence of Mitogen-activated protein kinase kinase kinase kinase 4 (Homo sapiens) (O95819 2-1239 limits assumed): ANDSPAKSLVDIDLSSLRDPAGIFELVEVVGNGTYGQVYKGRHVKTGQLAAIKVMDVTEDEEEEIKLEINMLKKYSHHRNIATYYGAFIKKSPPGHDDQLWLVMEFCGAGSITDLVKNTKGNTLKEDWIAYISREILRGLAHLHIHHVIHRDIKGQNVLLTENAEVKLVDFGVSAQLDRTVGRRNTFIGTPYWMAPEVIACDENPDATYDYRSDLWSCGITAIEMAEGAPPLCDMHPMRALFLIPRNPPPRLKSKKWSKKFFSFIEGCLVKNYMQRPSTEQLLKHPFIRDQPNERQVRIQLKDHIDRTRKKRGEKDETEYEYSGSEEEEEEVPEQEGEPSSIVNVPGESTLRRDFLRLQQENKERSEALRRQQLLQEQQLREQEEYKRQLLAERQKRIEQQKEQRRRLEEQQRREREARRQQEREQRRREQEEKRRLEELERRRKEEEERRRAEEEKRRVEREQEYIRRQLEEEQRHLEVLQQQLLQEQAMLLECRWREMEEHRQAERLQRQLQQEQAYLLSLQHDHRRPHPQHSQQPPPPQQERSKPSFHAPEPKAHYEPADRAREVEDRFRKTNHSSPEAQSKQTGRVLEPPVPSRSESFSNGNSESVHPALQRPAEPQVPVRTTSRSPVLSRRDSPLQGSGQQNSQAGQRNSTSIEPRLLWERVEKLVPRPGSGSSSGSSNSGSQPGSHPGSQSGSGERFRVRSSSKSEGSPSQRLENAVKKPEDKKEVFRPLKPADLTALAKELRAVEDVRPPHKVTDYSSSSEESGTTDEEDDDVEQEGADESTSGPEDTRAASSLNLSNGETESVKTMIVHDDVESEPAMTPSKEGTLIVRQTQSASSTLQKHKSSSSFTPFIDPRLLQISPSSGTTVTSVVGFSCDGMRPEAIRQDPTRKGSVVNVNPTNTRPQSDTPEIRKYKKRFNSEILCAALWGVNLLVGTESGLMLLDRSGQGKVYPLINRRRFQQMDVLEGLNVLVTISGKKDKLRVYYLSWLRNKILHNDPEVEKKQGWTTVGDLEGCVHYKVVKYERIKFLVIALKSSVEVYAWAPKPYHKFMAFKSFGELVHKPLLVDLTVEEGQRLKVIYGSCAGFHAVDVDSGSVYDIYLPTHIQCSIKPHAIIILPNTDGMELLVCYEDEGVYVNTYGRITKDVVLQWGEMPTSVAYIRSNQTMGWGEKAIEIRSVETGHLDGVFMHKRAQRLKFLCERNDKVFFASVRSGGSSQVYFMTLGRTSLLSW
Sequence of Rho-associated protein kinase 1 (Q13464 2-1354 limits assumed): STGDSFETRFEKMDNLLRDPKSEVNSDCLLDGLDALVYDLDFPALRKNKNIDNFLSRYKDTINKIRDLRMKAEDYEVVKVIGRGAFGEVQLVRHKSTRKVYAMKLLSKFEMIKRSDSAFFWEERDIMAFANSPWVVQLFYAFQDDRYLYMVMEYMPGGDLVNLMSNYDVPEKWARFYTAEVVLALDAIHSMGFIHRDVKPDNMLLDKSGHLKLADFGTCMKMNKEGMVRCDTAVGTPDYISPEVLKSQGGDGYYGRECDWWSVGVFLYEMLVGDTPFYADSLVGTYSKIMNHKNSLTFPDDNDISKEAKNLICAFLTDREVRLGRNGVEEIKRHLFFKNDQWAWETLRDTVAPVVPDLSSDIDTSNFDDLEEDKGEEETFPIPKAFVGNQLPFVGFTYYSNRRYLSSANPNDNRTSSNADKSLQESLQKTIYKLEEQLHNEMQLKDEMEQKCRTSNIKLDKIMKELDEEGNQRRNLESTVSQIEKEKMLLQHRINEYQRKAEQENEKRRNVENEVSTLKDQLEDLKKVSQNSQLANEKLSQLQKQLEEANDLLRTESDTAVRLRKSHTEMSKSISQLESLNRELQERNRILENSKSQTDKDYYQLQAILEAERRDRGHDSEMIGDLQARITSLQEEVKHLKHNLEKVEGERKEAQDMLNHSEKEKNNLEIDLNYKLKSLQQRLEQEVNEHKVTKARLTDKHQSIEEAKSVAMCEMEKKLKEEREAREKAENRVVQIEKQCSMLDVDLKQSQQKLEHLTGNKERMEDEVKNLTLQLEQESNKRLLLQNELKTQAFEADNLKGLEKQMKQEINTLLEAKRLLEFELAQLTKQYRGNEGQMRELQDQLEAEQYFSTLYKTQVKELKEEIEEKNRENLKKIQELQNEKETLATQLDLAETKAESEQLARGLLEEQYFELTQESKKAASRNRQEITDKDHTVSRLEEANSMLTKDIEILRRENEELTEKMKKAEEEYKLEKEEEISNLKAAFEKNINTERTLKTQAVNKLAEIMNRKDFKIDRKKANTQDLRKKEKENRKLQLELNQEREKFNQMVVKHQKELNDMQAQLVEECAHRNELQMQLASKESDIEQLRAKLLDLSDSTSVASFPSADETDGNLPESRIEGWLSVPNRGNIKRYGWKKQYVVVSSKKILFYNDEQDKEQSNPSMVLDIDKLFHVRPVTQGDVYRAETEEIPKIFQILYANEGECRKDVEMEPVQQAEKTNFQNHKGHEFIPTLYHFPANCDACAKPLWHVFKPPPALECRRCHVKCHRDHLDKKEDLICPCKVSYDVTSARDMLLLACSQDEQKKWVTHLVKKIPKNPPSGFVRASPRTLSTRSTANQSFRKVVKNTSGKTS

As for `Nc1nccc2cc(O[C@H]3CCCNC3)ccc12`, the half-life is more than 2 h in series [1], 5.8 h in series [3], 1.17 h in [9] and more than 2 h in series [18]. In addition, in series [2], the Papp B→A turned out to be 3.6 ×10⁻⁶ cm/s. The inhibition in [4], in [5], in series [7], in series [8], in series [10] and in series [11] was more than 80% in each case. Also, the inhibition in series [12], in series [14], in [15], in series [17] and in [19] was more than 80% each time. The Vd in series [6] is 11 L/kg. This compound displayed a clearance in series [13] of 9.5 mL/min/kg. This compound gave a bioavailability in series [16] of more than 75%.
